The experiment has as its system NSC. Put plainly: Increase in cell proliferation of human NSC cells assessed as increase in ATP level after 4 days by CelltiterGlo assay. The experiment is classed as functional. (ATP-based viability assays read luminescence as a measure of living cells.)
Turning to `COc1cc(N2CCC(c3cccc(Cl)c3)C2=O)ccc1-c1cn[nH]c1` (stereo not drawn), the EC150 is 65.9 nM. Turning to `COc1cccc(C2CCN(c3ccc(-c4cnco4)c(OC)c3)C2=O)c1` (stereo not drawn), the EC150 came out at 81.4 nM. Take `COc1cccc(C2CCN(c3ccc(-c4cn[nH]c4)c(OC)c3)C2=O)c1` (stereo not drawn): the EC150 was found to be 29.9 nM.

Regarding `COc1cc(N2CCN(Cc3cccc(OC(F)(F)F)c3)C2=O)ccc1-c1cn[nH]c1`, the EC150 is reported as 9.2 nM. The value for `COc1cccc(C2CCN(c3ccc(-c4ccncc4)cc3)C2=O)c1` (stereo not drawn) was 15.5 nM; that for `COc1cc(N2CCN(Cc3ccccc3C(F)(F)F)C2=O)ccc1-c1ccncc1` was 35.1 nM; that for `COc1cc(N2CCC(c3ccccc3)C2=O)ccc1-c1cn[nH]c1` (stereo not drawn) was 41.4 nM. The value for `COc1cccc(CN2CCN(c3ccc(-c4cn[nH]c4)c(OC)c3)C2=O)c1` was 23.9 nM; that for `COc1cccc(CN2CCN(c3ccc(-c4cn[nH]c4)c(F)c3)C2=O)c1` was 15.7 nM; that for `COc1cc(N2CCN(Cc3cccc(F)c3)C2=O)ccc1-c1cn[nH]c1` was 47 nM. On to `CCOc1cccc(CN2CCN(c3ccc(-c4cn[nH]c4)c(OC)c3)C2=O)c1`, for which the EC150 stood at 73.9 nM. As to `COc1cc(N2CCN(Cc3cccc(C(F)(F)F)c3)C2=O)ccc1-c1cn[nH]c1`, the EC150 came out at 8.6 nM. Regarding `COc1cc(N2CCN(Cc3cccc(C)c3)C2=O)ccc1-c1ccncc1`, the EC150 is 29.8 nM. As for `COc1cc(N2CCN(Cc3ccncc3)C2=O)ccc1-c1cn[nH]c1`, the EC150 is recorded as 42 nM. The value for `COc1cccc(C2CCN(c3ccc(-c4ccncc4)c(OC)c3)C2=O)c1` (stereo not drawn) was 61.3 nM; that for `COc1cccc(CN2CCN(c3ccc(-c4cn[nH]c4)cc3F)C2=O)c1` was 41.6 nM; that for `O=C1C(c2ccc(F)cc2)CCN1c1ccc(-c2cn[nH]c2)cc1` (stereo not drawn) was 41.7 nM.

As to `COc1cc(N2CCC(c3cccc(F)c3)C2=O)ccc1-c1cn[nH]c1` (stereo not drawn), the EC150 is recorded as 77.6 nM.
